Laboratory results taken from ChEMBL document CHEMBL1201862, “PubChem BioAssay data set” (2004).
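Each compound was tested at five concentrations against cells in 96-well plates for 48 hours. GI50 = concentration required for 50% inhibition of growth.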 Activity calls are given as the source filed them. No stated cut-off is given here; in the data, active = GI50 up to about 1.1 µM and inactive = higher.

How the values were obtained:
Assay in all cases: growth of human tumour cells (NCI), 48 h
KM12 = test system: KM12
HL-60 = test system: HL-60
K562 = test system: K562
NCI-H23 = test system: NCI-H23
NCI/ADR-RES = test system: NCI/ADR-RES
PC-3 = test system: PC-3
SNB-75 = test system: SNB-75
UACC-257 = test system: UACC-257
SK-MEL-2 = test system: SK-MEL-2
EKVX = test system: EKVX
OVCAR-8 = test system: OVCAR-8
MOLT-4 = test system: MOLT-4
CCRF-CEM = test system: CCRF-CEM
Malme-3M = test system: Malme-3M
HCT-15 = test system: HCT-15
A549 = test system: A549
SW-620 = test system: SW-620
SF-295 = test system: SF-295
HOP-62 = test system: HOP-62
SR = test system: SR

Structure (SMILES)	GI50 (KM12)	GI50 (HL-60)	GI50 (K562)	GI50 (NCI-H23)	GI50 (NCI/ADR-RES)	GI50 (PC-3)	GI50 (SNB-75)	GI50 (UACC-257)	GI50 (SK-MEL-2)	GI50 (EKVX)	GI50 (OVCAR-8)	GI50 (MOLT-4)	GI50 (CCRF-CEM)	GI50 (Malme-3M)	GI50 (HCT-15) [µM]	GI50 (A549)	GI50 (SW-620)	GI50 (SF-295)	GI50 (HOP-62)	GI50 (SR)
CC(C)(C)OC(=O)NCCC1SC2C=CC1C2 (stereo not given)	> 100 µM (inactive)	> 100 µM (inactive)	> 100 µM (inactive)	> 100 µM (inactive)	> 100 µM (inactive)	> 100 µM (inactive)	> 100 µM (inactive)	> 100 µM (inactive)	> 100 µM (inactive)	> 100 µM (inactive)	> 100 µM (inactive)	> 100 µM (inactive)	> 100 µM (inactive)	> 100 µM (inactive)	> 100	> 100 µM (inactive)	> 100 µM (inactive)	> 100 µM (inactive)	> 100 µM (inactive)	
CC12c3c4cc(Br)cc3Oc3cc(Br)cc(c31)Oc1cc(Br)cc(c12)O4	58.5 µM (inactive)		44.4 µM (inactive)	57.1 µM (inactive)	19.8 µM (inactive)	21 µM (inactive)	15.5 µM (inactive)	36.9 µM (inactive)	23.1 µM (inactive)	19.7 µM (inactive)	55 µM (inactive)	23.1 µM (inactive)		19.9 µM (inactive)	41.4	44.8 µM (inactive)	24.6 µM (inactive)	> 100 µM (inactive)	60.4 µM (inactive)	15.1 µM (inactive)
CC(C)=CCC/C(C)=C/CC/C(C)=C/[C@@H]1[C@@H](CO)[C@]1(C)CC/C=C(\C)CCC=C(C)C	35.7 µM (inactive)		31.3 µM (inactive)	32 µM (inactive)	22.4 µM (inactive)	23.9 µM (inactive)	> 100 µM (inactive)	74.3 µM (inactive)	43.8 µM (inactive)	20.2 µM (inactive)	17.1 µM (inactive)	28.9 µM (inactive)	0.251 µM (active)	> 100 µM (inactive)	30.3	39.8 µM (inactive)	22.6 µM (inactive)	60.8 µM (inactive)	69.7 µM (inactive)	19.6 µM (inactive)
CC1=C2C(=O)O[C@@H](c3ccoc3)[C@]2(C)CCC1=O [FRAXINELLONONE]	> 100 µM (inactive)		> 100 µM (inactive)	> 100 µM (inactive)	> 100 µM (inactive)	> 100 µM (inactive)	> 100 µM (inactive)	> 100 µM (inactive)	> 100 µM (inactive)	> 100 µM (inactive)	> 100 µM (inactive)	> 100 µM (inactive)	> 100 µM (inactive)		> 100	> 100 µM (inactive)	> 100 µM (inactive)	> 100 µM (inactive)	> 100 µM (inactive)	> 100 µM (inactive)
COc1cc(OCc2nc3ccccc3n3cccc23)cc(OC)c1OC	15.9 µM (inactive)	9.35 µM (inactive)	3.86 µM (inactive)	5.6 µM (inactive)	17.9 µM (inactive)	30.3 µM (inactive)	> 93.5 µM (inactive)	10.6 µM (inactive)	> 100 µM (inactive)	14.8 µM (inactive)	17.1 µM (inactive)	2.37 µM (inactive)	8.49 µM (inactive)	20.6 µM (inactive)	8.09	20.3 µM (inactive)	8.34 µM (inactive)	11.3 µM (inactive)	37.2 µM (inactive)	
CC(C)(CC(=O)Nc1ccccc1)C(=O)O	> 100 µM (inactive)	> 100 µM (inactive)	> 100 µM (inactive)	> 100 µM (inactive)	> 100 µM (inactive)	> 100 µM (inactive)		> 100 µM (inactive)	> 100 µM (inactive)	> 100 µM (inactive)	> 100 µM (inactive)	> 100 µM (inactive)	> 100 µM (inactive)		> 100	> 100 µM (inactive)	> 100 µM (inactive)	> 100 µM (inactive)	> 100 µM (inactive)	> 100 µM (inactive)
CNC(=O)OCC1=C(COC(=O)NC)CN(c2ccccc2)C1	> 100 µM (inactive)		> 100 µM (inactive)	> 100 µM (inactive)	> 100 µM (inactive)	> 100 µM (inactive)	> 100 µM (inactive)	> 100 µM (inactive)	> 100 µM (inactive)	> 100 µM (inactive)	> 100 µM (inactive)	> 100 µM (inactive)	> 100 µM (inactive)	> 100 µM (inactive)	> 100	> 100 µM (inactive)	> 100 µM (inactive)	> 100 µM (inactive)	> 100 µM (inactive)	> 100 µM (inactive)
